#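 Briefly, cells in 96-well plates were exposed to five compound concentrations for 48 h, and endpoints were estimated by linear interpolation. Definition used: TGI = concentration required for complete inhibition of growth.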
# Key:
# Assay in all cases: growth of human tumour cells (NCI), 48 h
# [1] = tested on: NCI/ADR-RES ovarian
# [2] = tested on: SK-OV-3 ovarian
# [3] = tested on: EKVX NSCLC
# [4] = tested on: SF-268 CNS
# [5] = tested on: HS 578T breast
# [6] = tested on: HCT-15 colon
# [7] = tested on: HOP-92 NSCLC
# [8] = tested on: ACHN renal
# [9] = tested on: MALME-3M melanoma
# [10] = tested on: IGROV1 ovarian
# [11] = tested on: OVCAR-5 ovarian
# [12] = tested on: MOLT-4 leukemia
# [13] = tested on: HL-60(TB) leukemia
# [14] = tested on: SK-MEL-28 melanoma
# [15] = tested on: SK-MEL-5 melanoma
# [16] = tested on: HCT-116 colon
# [17] = tested on: KM12 colon
# [18] = tested on: SW-620 colon
# [19] = tested on: K-562 leukemia
# [20] = tested on: SN12C renal
# [21] = tested on: UO-31 renal
# [22] = tested on: OVCAR-8 ovarian
# [23] = tested on: NCI-H23 lung
# [24] = tested on: NCI-H226 lung
# [25] = tested on: HCC-2998 colon
# [26] = tested on: TK-10 renal
# [27] = tested on: HOP-62 NSCLC
# [28] = tested on: SK-MEL-2 melanoma
# [29] = tested on: UACC-62 melanoma
# [30] = tested on: MDA-MB-231 breast
# [31] = tested on: MDA-MB-435
# [32] = tested on: HT29 colon
# [33] = tested on: MCF7 breast
# [34] = tested on: SF-539 CNS
# [35] = tested on: NCI-H522 lung
# [36] = tested on: UACC-257 melanoma
# [37] = tested on: M14 melanoma
# [38] = tested on: BT-549 breast
# [39] = tested on: U251 CNS
# [40] = tested on: A549 NSCLC
# [41] = tested on: COLO 205 colon
# [42] = tested on: OVCAR-3 ovarian
# [43] = tested on: PC-3 prostate
# [44] = tested on: A498 renal
# [45] = tested on: OVCAR-4 ovarian
# [46] = tested on: T-47D breast
# [47] = tested on: SR leukemia
# [48] = tested on: LOX IMVI melanoma
# [49] = tested on: SNB-19 CNS
# [50] = tested on: 786-0 renal
# [51] = tested on: DU-145 prostate
# [52] = tested on: MDA-N
# [53] = tested on: SF-295 CNS
# [54] = tested on: CAKI-1 renal
# [55] = tested on: SNB-75 CNS
# [56] = tested on: CCRF-CEM leukemia
# [57] = tested on: NCI-H460 lung
# [58] = tested on: RPMI-8226 leukemia
smiles,measurement,setting,value
Cc1nn(CN2CCN(C)CC2)c(=S)n1/N=C/c1ccc(-c2ccc(Cl)cc2Cl)o1,TGI,[1],> 100 µM
same,TGI,[2],> 100 µM
same,TGI,[3],88.8 µM
same,TGI,[4],> 100 µM
same,TGI,[5],> 100 µM
same,TGI,[6],> 100 µM
same,TGI,[7],> 100 µM
same,TGI,[8],> 100 µM
same,TGI,[9],> 100 µM
same,TGI,[10],> 100 µM
same,TGI,[11],> 100 µM
same,TGI,[12],98.2 µM
same,TGI,[13],> 100 µM
same,TGI,[14],> 100 µM
same,TGI,[15],> 100 µM
same,TGI,[16],> 100 µM
same,TGI,[17],> 100 µM
same,TGI,[18],> 100 µM
same,TGI,[19],> 100 µM
same,TGI,[20],> 100 µM
same,TGI,[21],> 100 µM
same,TGI,[22],> 100 µM
same,TGI,[23],> 100 µM
same,TGI,[24],95.2 µM
same,TGI,[25],> 100 µM
same,TGI,[26],> 100 µM
same,TGI,[27],> 100 µM
same,TGI,[28],> 100 µM
same,TGI,[29],> 100 µM
same,TGI,[30],> 100 µM
same,TGI,[31],> 100 µM
same,TGI,[32],> 100 µM
same,TGI,[33],> 100 µM
same,TGI,[34],> 100 µM
same,TGI,[35],> 100 µM
same,TGI,[36],> 100 µM
same,TGI,[37],> 100 µM
same,TGI,[38],> 100 µM
same,TGI,[39],> 100 µM
same,TGI,[40],> 100 µM
same,TGI,[41],> 100 µM
same,TGI,[42],> 100 µM
same,TGI,[43],> 100 µM
same,TGI,[44],56.8 µM
same,TGI,[45],> 100 µM
same,TGI,[46],> 100 µM
same,TGI,[47],> 100 µM
same,TGI,[48],> 100 µM
same,TGI,[49],> 100 µM
same,TGI,[50],> 100 µM
same,TGI,[51],> 100 µM
same,TGI,[52],> 100 µM
CC(CO)(CO)N1C(=O)C2C3c4ccccc4C(c4ccccc43)C2C1=O (centres undefined),TGI,[1],> 100 µM
same,TGI,[2],> 100 µM
same,TGI,[4],> 100 µM
same,TGI,[5],> 100 µM
same,TGI,[6],> 100 µM
same,TGI,[8],> 100 µM
same,TGI,[9],> 100 µM
same,TGI,[10],> 100 µM
same,TGI,[11],> 100 µM
same,TGI,[12],> 100 µM
same,TGI,[13],> 100 µM
same,TGI,[14],> 100 µM
same,TGI,[53],> 100 µM
same,TGI,[15],> 100 µM
same,TGI,[16],> 100 µM
same,TGI,[17],> 100 µM
same,TGI,[18],> 100 µM
same,TGI,[19],> 100 µM
same,TGI,[20],> 100 µM
same,TGI,[21],> 100 µM
same,TGI,[22],> 100 µM
same,TGI,[23],> 100 µM
same,TGI,[54],> 100 µM
same,TGI,[24],> 100 µM
same,TGI,[25],> 100 µM
same,TGI,[26],> 100 µM
same,TGI,[27],> 100 µM
same,TGI,[28],> 100 µM
same,TGI,[29],> 100 µM
same,TGI,[30],> 100 µM
same,TGI,[31],> 100 µM
same,TGI,[32],> 100 µM
same,TGI,[33],> 100 µM
same,TGI,[34],> 100 µM
same,TGI,[35],> 100 µM
same,TGI,[55],> 100 µM
same,TGI,[36],> 100 µM
same,TGI,[37],> 100 µM
same,TGI,[38],> 100 µM
same,TGI,[39],> 100 µM
same,TGI,[40],> 100 µM
same,TGI,[56],> 100 µM
same,TGI,[41],> 100 µM
same,TGI,[42],> 100 µM
same,TGI,[43],> 100 µM
same,TGI,[44],> 100 µM
same,TGI,[57],> 100 µM
same,TGI,[46],> 100 µM
same,TGI,[47],> 100 µM
same,TGI,[49],> 100 µM
same,TGI,[50],> 100 µM
same,TGI,[51],> 100 µM
same,TGI,[52],> 100 µM
O=C(Nc1ccc(Cl)cc1)/C(=C(/[O-])c1ccc(Br)cc1)[n+]1cccc(-c2ccc(Cl)cc2)n1,TGI,[1],31.6 µM
same,TGI,[2],33.7 µM
same,TGI,[3],19.3 µM
same,TGI,[4],19.5 µM
same,TGI,[5],9.65 µM
same,TGI,[6],51.7 µM
same,TGI,[7],> 100 µM
same,TGI,[8],46.1 µM
same,TGI,[9],11.3 µM
same,TGI,[10],14.8 µM
same,TGI,[11],21.7 µM
same,TGI,[12],> 100 µM
same,TGI,[14],71.1 µM
same,TGI,[53],11.2 µM
same,TGI,[15],> 100 µM
same,TGI,[16],13 µM
same,TGI,[17],9.86 µM
same,TGI,[18],> 100 µM
same,TGI,[19],> 100 µM
same,TGI,[20],8.44 µM
same,TGI,[21],42.6 µM
same,TGI,[22],14.2 µM
same,TGI,[23],9.04 µM
same,TGI,[54],6.66 µM
same,TGI,[25],24 µM
same,TGI,[26],67.8 µM
same,TGI,[27],29.2 µM
same,TGI,[28],12.3 µM
same,TGI,[29],22.8 µM
same,TGI,[30],> 100 µM
same,TGI,[31],25 µM
same,TGI,[33],3.28 µM
same,TGI,[35],6.83 µM
same,TGI,[55],26.1 µM
same,TGI,[36],> 100 µM
same,TGI,[37],18.5 µM
same,TGI,[38],9.35 µM
same,TGI,[39],> 100 µM
same,TGI,[40],> 100 µM
same,TGI,[41],> 100 µM
same,TGI,[42],12.9 µM
same,TGI,[58],> 100 µM
same,TGI,[43],> 100 µM
same,TGI,[44],> 100 µM
same,TGI,[57],16.5 µM
same,TGI,[45],29.4 µM
same,TGI,[46],5.14 µM
same,TGI,[47],> 100 µM
same,TGI,[48],> 100 µM
same,TGI,[49],> 100 µM
same,TGI,[50],14.3 µM
same,TGI,[51],> 100 µM
same,TGI,[52],> 100 µM
OC(Cc1ccc2ccccc2n1)(C(F)(F)F)C(F)(F)F,TGI,[1],> 10 µM
same,TGI,[2],> 10 µM
same,TGI,[3],> 10 µM
same,TGI,[4],> 10 µM
same,TGI,[5],> 10 µM
same,TGI,[6],> 10 µM
same,TGI,[7],> 10 µM
same,TGI,[8],> 10 µM
same,TGI,[9],> 10 µM
same,TGI,[10],> 10 µM
same,TGI,[11],> 10 µM
same,TGI,[12],> 10 µM
same,TGI,[14],> 10 µM
same,TGI,[53],> 10 µM
same,TGI,[15],> 10 µM
same,TGI,[16],> 10 µM
same,TGI,[17],> 10 µM
same,TGI,[18],> 10 µM
same,TGI,[19],> 10 µM
same,TGI,[20],> 10 µM
same,TGI,[21],> 10 µM
same,TGI,[22],> 10 µM
same,TGI,[23],> 10 µM
same,TGI,[54],> 10 µM
same,TGI,[25],> 10 µM
same,TGI,[26],> 10 µM
same,TGI,[27],> 10 µM
same,TGI,[29],> 10 µM
same,TGI,[30],> 10 µM
same,TGI,[31],> 10 µM
same,TGI,[32],> 10 µM
same,TGI,[33],> 10 µM
same,TGI,[34],> 10 µM
same,TGI,[35],> 10 µM
same,TGI,[55],> 10 µM
same,TGI,[36],> 10 µM
same,TGI,[37],> 10 µM
same,TGI,[38],> 10 µM
same,TGI,[39],> 10 µM
same,TGI,[40],> 10 µM
same,TGI,[56],> 10 µM
same,TGI,[41],> 10 µM
same,TGI,[42],> 10 µM
same,TGI,[58],> 10 µM
same,TGI,[43],> 10 µM
same,TGI,[44],> 10 µM
same,TGI,[57],> 10 µM
same,TGI,[45],> 10 µM
same,TGI,[46],> 10 µM
same,TGI,[47],> 10 µM
same,TGI,[48],> 10 µM
same,TGI,[49],> 10 µM
same,TGI,[50],> 10 µM
same,TGI,[51],> 10 µM
same,TGI,[52],> 10 µM
COc1ccc(-n2cnc3c(NCC(=O)O)ncnc32)cc1,TGI,[1],> 100 µM
same,TGI,[2],> 100 µM
same,TGI,[3],> 100 µM
same,TGI,[4],> 100 µM
same,TGI,[5],> 100 µM
same,TGI,[6],> 100 µM
same,TGI,[7],> 100 µM
same,TGI,[8],> 100 µM
same,TGI,[9],> 100 µM
same,TGI,[10],> 100 µM
same,TGI,[11],> 100 µM
same,TGI,[12],> 100 µM
same,TGI,[14],> 100 µM
same,TGI,[53],> 100 µM
same,TGI,[15],> 100 µM
same,TGI,[16],> 100 µM
same,TGI,[17],> 100 µM
same,TGI,[18],> 100 µM
same,TGI,[19],> 100 µM
same,TGI,[20],> 100 µM
same,TGI,[21],> 100 µM
same,TGI,[22],> 100 µM
same,TGI,[23],> 100 µM
same,TGI,[54],> 100 µM
same,TGI,[24],> 100 µM
same,TGI,[25],> 100 µM
same,TGI,[26],> 100 µM
same,TGI,[27],> 100 µM
same,TGI,[28],> 100 µM
same,TGI,[29],> 100 µM
same,TGI,[30],> 100 µM
same,TGI,[31],> 100 µM
same,TGI,[32],> 100 µM
same,TGI,[33],> 100 µM
same,TGI,[35],> 100 µM
same,TGI,[55],> 100 µM
same,TGI,[36],> 100 µM
same,TGI,[37],> 100 µM
same,TGI,[38],> 100 µM
same,TGI,[39],> 100 µM
same,TGI,[40],> 100 µM
same,TGI,[56],> 100 µM
same,TGI,[41],> 100 µM
same,TGI,[42],> 100 µM
same,TGI,[58],> 100 µM
same,TGI,[43],> 100 µM
same,TGI,[44],> 100 µM
same,TGI,[57],> 100 µM
same,TGI,[45],> 100 µM
same,TGI,[46],> 100 µM
same,TGI,[47],> 100 µM
same,TGI,[48],> 100 µM
same,TGI,[49],> 100 µM
same,TGI,[50],> 100 µM
same,TGI,[51],> 100 µM
same,TGI,[52],> 100 µM

# From PubChem BioAssay (NCI)
